For data set [1], the system named is human melanoma cells (A375). The experiment in a line: Radioimmunoscintigraphy and organ radioactivity counting of human melanoma grafted on nude mice, pretargeted with anti-melanoma anti-DTPA-indium dual specificity conjugate. It is filed as in vivo. The settings on record: for specificity of tumour binding: A375 tumour in nude mice. How it is done: Radioimmunoscintigraphy of human melanoma grafted on to nude mice with anti-melanoma anti-DTPA indium dual specificity conjugates and N-α-DTPA-tyrosyl-N-ε-DTPA-lysine labelled with indium 111.
(§1) 3.10^6 human melanoma cells (A375) are injected subcutaneously into the abdomen of nude mice. 3 to 4 weeks later the mice develop tumours of 0.5 to 2 g. The mice are then injected with 2 to 10 μg of dual specificity conjugate prepared by chemical coupling of the F(ab)'2 fragment of a […] anti-melanoma antibody (mouse monoclonal antibody IgG1, kappa) to the reduced F(ab)'2 fragment of an anti-DTPA-indium antibody (mouse monoclonal antibody IgG1, lambda) using the heterobifunctional reagent EMCS.
(§2) Twenty four hours later, mice are injected with 10 μCi of the derivative of Example 1 labelled with indium-111. Images are then produced at selected time intervals using a Sopha Medical Gammatome 2 gamma camera equipped with a medium energy high-resolution collimator or the animals are killed and the major organs and the tumour are measured for radioactivity associated with indium-111 using a gamma counter.

Data set [2] deals with human melanoma cells (A375). The experiment in a line: Comparison of indium-111-labelled probes in the labelling of tumours in mice (tumour/organ contrast). It is filed as in vivo, nude mice. The settings on record: for Contrast cpm/g in the tumour/cpm/g in the organ: Heart / Contrast cpm/g in the tumour/cpm/g in the organ: Kidneys / Contrast cpm/g in the tumour/cpm/g in the organ: Liver / Contrast cpm/g in the tumour/cpm/g in the organ: Lung / Contrast cpm/g in the tumour/cpm/g in the organ: Plasma / Contrast cpm/g in the tumour/cpm/g in the organ: Spleen: 3 hours after injection of the radiolabelled probe. Here is the method: as §1, §2
Comparison between compound 1 labelled with indium-111 and di-(DNP-lys)-DTPA in the labelling of tumours in mice.
Experiments are carried out as in Example 5 but the mice are given indium-111-labelled di-(DNP-lys)-DTPA (derivative 1 of French Patent Application 86.13146) instead of the derivative 1 described above. Three hours after injection of the probe, the mice are dissected and the gamma radioactivity of the major organs and tumour is counted. It is observed that the tumour accumulates a dose of radioactivity equivalent to that Obtained with the two compounds of Example 1 of the present invention. However, the elimination of the excess radioactivity is substantially more rapid with the compounds of the present invention, as shown by the following table: […]

Data set [3] is described as follows: Tolerance to probes in animals. It is filed as in vivo, BALB/c mice. As to conditions: 10 nanomoles, observed 16 days; compounds 1 and 2 complexed with non-radioactive indium. How it is done: Doses corresponding to 10 nanomoles, i.e. about 10,000 times more than the dose required for radioimmunoscintigraphy, of compounds 1 and 2 previously complexed with non-radioactive indium and compound 3 are administered to BALB/c mice. These mice are then observed for 16 days under normal breeding conditions.

[4] abbreviates: indium-111 labelled, after dual specificity conjugate.
Setting [5] is: radioactivity measured after 24 hours.

Residues, ends and D or L forms follow the SMILES beside them. Groups on a side chain read outwards from the residue. *: point of attachment. DTPA = O=C(O)CN(CCN(CC(=O)O)CC(=O)O)CCN(CC(=O)O)CC(=O)* Where only a bound is given, the exact number is not on record here.

Take “DTPA [indium-111-labelled DTPA, reference compound]”: the “specificity of tumour binding” value in data set [1] was “little specific binding is observed”. The elimination/excretion of radioactivity result in data set [1] (mouse, in vivo) is given as “excreted very rapidly”.
On to “di-(DNP-lys)-DTPA [derivative of the prior art]”, for which, in data set [2], the “Contrast cpm/g in the tumour/cpm/g in the organ: Heart” value came out at 2.1, the “Contrast cpm/g in the tumour/cpm/g in the organ: Kidneys” value was 1.0, the “Contrast cpm/g in the tumour/cpm/g in the organ: Liver” value is reported as 1.3 and the “Contrast cpm/g in the tumour/cpm/g in the organ: Lung” value stood at 0.9. Moreover, in data set [2], the “Contrast cpm/g in the tumour/cpm/g in the organ: Plasma” value turned out to be 0.2 and the “Contrast cpm/g in the tumour/cpm/g in the organ: Spleen” value amounted to 1.8. For the same molecule, the “dose of radioactivity accumulated by the tumour compared with Example 1” value in data set [2] (3 hours after injection, indium-111 labelled) is reported as “equivalent”.
In the case of `O=C(CCC(=O)NCC(=O)NCCCC[C@H](NC(=O)CNC(=O)CCC(=O)NCCc1cnc[nH]1)C(=O)N[C@@H](Cc1ccc(O)cc1)C(=O)O)NCCc1cnc[nH]1` [Example 3, N-α-N-ε-di-(histamine-succinyl-glycyl)-lysyl-tyrosine], in data set [3], the signs of toxicity result is “No sign of toxicity” and the “weight gain versus control animals” value was “not significantly different”.
Take `O=C(O)CN(CCN(CC(=O)O)CC(=O)O)CCN(CC(=O)O)CC(=O)NCCCC[C@H](NC(=O)[C@H](Cc1ccc(O)cc1)NC(=O)CN(CCN(CCN(CC(=O)O)CC(=O)O)CC(=O)O)CC(=O)O)C(=O)O` [Example 1, N-α-DTPA-tyrosyl-N-ε-DTPA-lysine] ({DTPA}-Tyr-Lys(DTPA)-OH): in data set [2], the “Contrast cpm/g in the tumour/cpm/g in the organ: Heart” value came to 14.9, the “Contrast cpm/g in the tumour/cpm/g in the organ: Kidneys” value is 3.5, the “Contrast cpm/g in the tumour/cpm/g in the organ: Liver” value is 10.8 and the “Contrast cpm/g in the tumour/cpm/g in the organ: Lung” value was determined as 8.2. In data set [2], the “Contrast cpm/g in the tumour/cpm/g in the organ: Plasma” value amounted to 1.7 and the “Contrast cpm/g in the tumour/cpm/g in the organ: Spleen” value is listed as 12.7. Further, the “specificity of tumour binding” value in data set [1] was “specific”. Moreover, in data set [1] (control without or with irrelevant conjugate), the “tumour accumulation of radioactivity without dual specificity conjugate or with conjugate specific for another tumour antigen” value is reported as “did not accumulate significant amounts of radioactivity”. Besides, the “time after injection at which tumours can be observed on gamma camera images” value in data set [1] (indium-111 labelled, 10 μCi, 24 h after dual specificity conjugate) is reported as “Only a few minutes”. Besides, in data set [1] (setting [4]), the “non-specific accumulation of radioactivity” value was “essentially limited to the kidneys”, the “time in which a large majority of the circulating radioactivity is eliminated” value is on record as “less than 24 hours”, the “time in which radioactivity bound to the tumour is established” value is reported as “within a few hours” and the “time radioactivity bound to the tumour remains stable” value is “at least two days”. In addition, in data set [1] (setting [5]), the “tumour/organ ratio (T/O), all organs except the kidneys” value is given as > 3 and the “tumour/organ ratio (T/O), kidneys” value is listed as 0.7. In data set [3], the signs of toxicity entry was “No sign of toxicity” and the “weight gain versus control animals” value was “not significantly different”.
Regarding `O=C(O)CN(CCN(CC(=O)O)CC(=O)O)CCN(CC(=O)O)CC(=O)NCC(=O)NCCCC[C@H](NC(=O)CNC(=O)CN(CCN(CCN(CC(=O)O)CC(=O)O)CC(=O)O)CC(=O)O)C(=O)N[C@@H](Cc1ccc(O)cc1)C(=O)O` [Example 2, N-α-N-ε-di-(DTPA-glycyl)-lysyl-tyrosine] ({DTPA}-Gly-Lys([Gly-DTPA])-Tyr-OH), in data set [3], the signs of toxicity result is recorded as “No sign of toxicity” and the “weight gain versus control animals” value is listed as “not significantly different”.

The values are drawn from patent publication US5274076A, “Hydrophilic derivatives, their application to diagnosis and to therapeutics, diagnostic or therapeutic kits and immunological reagents” (Immunotech Partners, priority 1989, dated 1993).
